Laboratory results reported in publication PMC10965373 (ChemMedChem, 2024).
In brackets after ≈: the same amount, converted by molar mass. Several values for one entry are separate records, joined by “and”; a condition that tells them apart may be missing. Equal values may be shown once.

Tests used:
[1] = system: Mycobacterium abscessus ATCC 19977; details: in vitro; cited from earlier work
[2] = after 4 h of incubation, Medicines for Malaria Venture data; cited from earlier work
[3] = cited from earlier work
[4] = cited from earlier work; remark: listed apart in the source
[5] = male Sprague Dawley rats; cited from earlier work
[6] = system: human kidney epithelia cells HEK293; experiment: Single concentration cytotoxicity against HEK293; details: HEK293, 50 μM, 24 h, relative to DMSO-treated cells
[7] = In vitro microsomal stability, human microsomal suspension
[8] = In vitro microsomal stability, murine microsomal suspension
[9] = system: Mycobacterium tuberculosis H37Rv; details: in vitro; cited from earlier work
[10] = Single concentration cytotoxicity against HEK293; details: human
[11] = 2 μM substrate, 0.42 mg/mL microsomal proteins, 100 mM phosphate buffer pH 7.4
[12] = after 7 min, 2 μM substrate, 0.42 mg/mL microsomal proteins, pH 7.4

Structure (SMILES) | MIC90 against Mabs [1] | remaining substance in murine plasma [2] | stability during incubation with human liver microsomes [3] | stability during incubation with murine liver microsomes [4] | plasma levels after oral administration [5] | relative cell viability [6] | half-life in human microsomal suspension [7, 11] | remaining substance in human microsomal suspension [7, 12] | half-life in murine microsomal suspension [8, 11] | remaining substance in murine microsomal suspension [8, 12] | MIC90 against Mtb [9] | viability at 24 h, 50 µM [10] | stability in human microsomal suspension ([7]; human microsomal suspension) | stability in murine microsomal suspension ([8]; murine microsomal suspension)
O=C(N[C@H](Cc1ccccc1)C(=O)Nc1ccccc1N1CCOCC1)c1cccs1 [MMV] | 6.25 µM (≈ 2.72 µg/mL) | 60% | highly unstable | highly unstable | insufficient plasma levels | 67% | 1.2 min | 2% | 0.9 min | 0% | – | – | – | –
O=C(N[C@H](Cc1ccccc1)C(=O)Nc1ccccc1N1CCS(=O)(=O)CC1)c1ccccc1F [compound 2, (2R)-2-[(2-fluorophenyl)formamido]-N-[2-(1,1-dioxo-1λ6-thiomorpholin-4-yl)phenyl]-3-phenylpropanamide] | 0.78 µM and < 1 µM | – | highly unstable | highly unstable | – | – | – | – | – | – | < 1 µM | 73% | comparably low stabilities | comparably low stabilities
